In article PMC5218480 (PLoS ONE, 2017):

Tested on: MV-4-11 cells
Assay: Gene expression microarray analysis (Affymetrix PrimeView) and GSEA
Format: cell-based, human
Parameters: RFU PODN (11730768_x_at) / Fold change /veh PODN (11730768_x_at) / RFU LINC00158 (11744669_a_at) / Fold change /veh LINC00158 (11744669_a_at) / RFU DUSP10 (11751237_a_at) / Fold change /veh DUSP10 (11751237_a_at) / RFU ID3 (11757404_x_at) / Fold change /veh ID3 (11757404_x_at) / RFU PLEKHG5 (11737974_s_at) / Fold change /veh PLEKHG5 (11737974_s_at) / RFU LRRC4B (11730491_at) / Fold change /veh LRRC4B (11730491_at) / RFU GIMAP4 (11747438_a_at) / Fold change /veh GIMAP4 (11747438_a_at) / RFU KRT8 (11758183_x_at) / Fold change /veh KRT8 (11758183_x_at) / RFU CNN1 (11734310_a_at) / Fold change /veh CNN1 (11734310_a_at) / RFU VPS37D (11726825_at) / Fold change /veh VPS37D (11726825_at) / RFU C10orf10 (11716522_x_at) / Fold change /veh C10orf10 (11716522_x_at) / RFU KIR2DL2 /// KIR2DL4 /// KIR2DL5A /// KIR2DL5B /// KIR2DS1 /// KIR2DS2 /// KIR2DS3 /// KIR2DS4 /// KIR3DL3 /// KIR3DL3 /// KIR3DS1 (11738374_at) / Fold change /veh KIR2DL2 /// KIR2DL4 /// KIR2DL5A /// KIR2DL5B /// KIR2DS1 /// KIR2DS2 /// KIR2DS3 /// KIR2DS4 /// KIR3DL3 /// KIR3DL3 /// KIR3DS1 (11738374_at) / RFU C1QL1 (11718748_at) / Fold change /veh C1QL1 (11718748_at) / RFU TMPRSS4 (11747572_a_at) / Fold change /veh TMPRSS4 (11747572_a_at) / RFU HAMP (11756126_x_at) / Fold change /veh HAMP (11756126_x_at) / RFU RNFT2 (11725882_a_at) / Fold change /veh RNFT2 (11725882_a_at) / RFU NR4A2 (11747474_a_at) / Fold change /veh NR4A2 (11747474_a_at) / RFU ABCC12 (11746883_a_at) / Fold change /veh ABCC12 (11746883_a_at) / RFU TMEM136 (11760407_x_at) / Fold change /veh TMEM136 (11760407_x_at) / RFU CLDN22 /// WWC2 (11732394_at) / Fold change /veh CLDN22 /// WWC2 (11732394_at) / RFU HLA-DPB1 (11760878_x_at) / Fold change /veh HLA-DPB1 (11760878_x_at) / RFU SPINT1 (11716480_a_at) / Fold change /veh SPINT1 (11716480_a_at) / RFU GAP43 (11754022_s_at) / Fold change /veh GAP43 (11754022_s_at) / RFU A4GNT (11735810_at) / Fold change /veh A4GNT (11735810_at) / RFU PRB3 (11715151_x_at) / Fold change /veh PRB3 (11715151_x_at) / RFU TUBB4B (11761932_at) / Fold change /veh TUBB4B (11761932_at) / RFU CAPN14 (11732068_a_at) / Fold change /veh CAPN14 (11732068_a_at) / RFU TMCC2 (11721928_a_at) / Fold change /veh TMCC2 (11721928_a_at) / RFU IRGQ (11745062_a_at) / Fold change /veh IRGQ (11745062_a_at) / RFU FAM174B (11720279_a_at) / Fold change /veh FAM174B (11720279_a_at) / RFU TMPRSS4 (11748680_a_at) / Fold change /veh TMPRSS4 (11748680_a_at) / RFU FAM212B (11763350_a_at) / Fold change /veh FAM212B (11763350_a_at) / RFU PLEKHG5 (11743358_a_at) / Fold change /veh PLEKHG5 (11743358_a_at) / RFU ZSCAN30 (11745921_a_at) / Fold change /veh ZSCAN30 (11745921_a_at) / RFU CMKLR1 (11741424_a_at) / Fold change /veh CMKLR1 (11741424_a_at) / RFU LOC101060620 /// MAPK8IP1 (11723275_at) / Fold change /veh LOC101060620 /// MAPK8IP1 (11723275_at) / RFU SPTSSB (11747773_x_at) / Fold change /veh SPTSSB (11747773_x_at) / RFU PRSS12 (11739890_at) / Fold change /veh PRSS12 (11739890_at) / RFU BIN1 (11741810_x_at) / Fold change /veh BIN1 (11741810_x_at) / RFU WNT11 (11732464_a_at) / Fold change /veh WNT11 (11732464_a_at) / RFU C10orf10 (11716521_a_at) / Fold change /veh C10orf10 (11716521_a_at) / RFU C5orf56 (11738089_at) / Fold change /veh C5orf56 (11738089_at) / RFU CYB561 (11721691_x_at) / Fold change /veh CYB561 (11721691_x_at) / RFU ANKRD19P (11752326_a_at) / Fold change /veh ANKRD19P (11752326_a_at) / RFU OR2T12 /// OR2T33 /// OR2T8 (11738714_s_at) / Fold change /veh OR2T12 /// OR2T33 /// OR2T8 (11738714_s_at) / RFU VCAN (11748164_a_at) / Fold change /veh VCAN (11748164_a_at) / RFU JSRP1 (11732532_at) / Fold change /veh JSRP1 (11732532_at) / RFU KRTAP10-11 (11738290_x_at) / Fold change /veh KRTAP10-11 (11738290_x_at) / RFU MYO3A (11730013_a_at) / Fold change /veh MYO3A (11730013_a_at) / RFU EBF3 (11725865_a_at) / Fold change /veh EBF3 (11725865_a_at) / RFU CAMK2N1 (11719241_x_at) / Fold change /veh CAMK2N1 (11719241_x_at) / RFU C5orf56 (11738088_a_at) / Fold change /veh C5orf56 (11738088_a_at) / RFU OLFML3 (11715873_a_at) / Fold change /veh OLFML3 (11715873_a_at) / RFU LOC100653217 /// NTM (11731650_a_at) / Fold change /veh LOC100653217 /// NTM (11731650_a_at) / RFU MAPK11 (11762145_a_at) / Fold change /veh MAPK11 (11762145_a_at) / RFU FIZ1 (11724087_x_at) / Fold change /veh FIZ1 (11724087_x_at) / RFU OASL (11726364_x_at) / Fold change /veh OASL (11726364_x_at) / RFU SOX15 (11748057_x_at) / Fold change /veh SOX15 (11748057_x_at) / RFU CD79A (11719716_a_at) / Fold change /veh CD79A (11719716_a_at) / RFU HIST1H1D (11736915_at) / Fold change /veh HIST1H1D (11736915_at) / RFU CASKIN2 (11723855_a_at) / Fold change /veh CASKIN2 (11723855_a_at) / RFU LOC730098 (11760151_x_at) / Fold change /veh LOC730098 (11760151_x_at) / RFU OR4N2 (11742367_at) / Fold change /veh OR4N2 (11742367_at) / RFU PRRT2 (11749266_a_at) / Fold change /veh PRRT2 (11749266_a_at) / RFU SNX32 (11753110_a_at) / Fold change /veh SNX32 (11753110_a_at) / RFU CDHR5 (11726645_a_at) / Fold change /veh CDHR5 (11726645_a_at) / RFU RCAN1 (11760418_a_at) / Fold change /veh RCAN1 (11760418_a_at) / RFU FAM167A (11723789_a_at) / Fold change /veh FAM167A (11723789_a_at) / RFU FAM26E (11764081_at) / Fold change /veh FAM26E (11764081_at) / RFU ISYNA1 (11749810_s_at) / Fold change /veh ISYNA1 (11749810_s_at) / RFU ACY1 (11761880_at) / Fold change /veh ACY1 (11761880_at) / RFU 11764098_at / Fold change /veh 11764098_at / RFU SAMD14 (11745864_x_at) / Fold change /veh SAMD14 (11745864_x_at) / RFU NPB (11741838_a_at) / Fold change /veh NPB (11741838_a_at) / RFU TMPRSS6 (11731388_a_at) / Fold change /veh TMPRSS6 (11731388_a_at) / RFU KRTAP10-2 (11738614_at) / Fold change /veh KRTAP10-2 (11738614_at) / RFU ARHGAP8 /// PRR5-ARHGAP8 (11727945_x_at) / Fold change /veh ARHGAP8 /// PRR5-ARHGAP8 (11727945_x_at) / RFU KRTAP5-7 /// NADSYN1 (11734609_at) / Fold change /veh KRTAP5-7 /// NADSYN1 (11734609_at) / RFU RASL12 (11751679_a_at) / Fold change /veh RASL12 (11751679_a_at) / RFU CDKN2B (11736163_a_at) / Fold change /veh CDKN2B (11736163_a_at) / RFU PRF1 (11729649_at) / Fold change /veh PRF1 (11729649_at) / RFU, ZNF638 /// ZNF638-IT1 / Fold change vs veh, ZNF638 /// ZNF638-IT1 / RFU, PANK3 / Fold change vs veh, PANK3 / RFU, SH3YL1 / Fold change vs veh, SH3YL1 / RFU, ZEB2 / Fold change vs veh, ZEB2 / RFU, NRIP1 / Fold change vs veh, NRIP1 / RFU, PTTG1IP / Fold change vs veh, PTTG1IP / RFU, CAPN2 / Fold change vs veh, CAPN2 / RFU, MED14 / Fold change vs veh, MED14 / RFU, SNORA58 / Fold change vs veh, SNORA58 / RFU, C1orf63 / Fold change vs veh, C1orf63 / RFU, LRRFIP1 / Fold change vs veh, LRRFIP1 / RFU, NDUFAF7 / Fold change vs veh, NDUFAF7 / RFU, SLC12A2 / Fold change vs veh, SLC12A2 / RFU, IBTK / Fold change vs veh, IBTK / RFU, ESF1 / Fold change vs veh, ESF1 / Fold change vs veh, TMEM50B / RFU, TAOK1 / Fold change vs veh, TAOK1 / RFU, ACBD3 / Fold change vs veh, ACBD3 / RFU, TMA16 / Fold change vs veh, TMA16 / RFU, RWDD3 / Fold change vs veh, RWDD3 / RFU, BCAT1 / Fold change vs veh, BCAT1 / RFU, EDEM3 / Fold change vs veh, EDEM3 / RFU, TMEM33 / Fold change vs veh, TMEM33 / RFU, WDR75 / Fold change vs veh, WDR75 / RFU, AHCTF1 / Fold change vs veh, AHCTF1 / RFU, TFRC / Fold change vs veh, TFRC / RFU, ZDHHC17 / Fold change vs veh, ZDHHC17 / RFU, NOM1 / Fold change vs veh, NOM1 / RFU, ARL8B / Fold change vs veh, ARL8B / RFU, ZBTB11 / Fold change vs veh, ZBTB11 / RFU, TAMM41 / Fold change vs veh, TAMM41 / RFU, KIAA1704 /// LOC100996395 / Fold change vs veh, KIAA1704 /// LOC100996395 / RFU, ING1 / Fold change vs veh, ING1 / RFU, TRMT61B / Fold change vs veh, TRMT61B / RFU, FUBP3 / Fold change vs veh, FUBP3 / RFU, TP53 / Fold change vs veh, TP53 / RFU, TNKS2 / Fold change vs veh, TNKS2 / RFU, ZFP14 / Fold change vs veh, ZFP14 / RFU, ACTR2 / Fold change vs veh, ACTR2 / RFU, PPP3R1 / Fold change vs veh, PPP3R1 / RFU, PIK3R1 / Fold change vs veh, PIK3R1 / RFU, HNRNPA1 / Fold change vs veh, HNRNPA1 / RFU, RNF170 / Fold change vs veh, RNF170 / RFU, ZNF28 / Fold change vs veh, ZNF28 / RFU, RNGTT / Fold change vs veh, RNGTT / RFU, OGT / Fold change vs veh, OGT / RFU, BRD1 / Fold change vs veh, BRD1 / RFU, MARS / Fold change vs veh, MARS / RFU, ZNF655 / Fold change vs veh, ZNF655 / RFU, FAHD1 / Fold change vs veh, FAHD1 / RFU, BDP1 / Fold change vs veh, BDP1 / RFU, LRRCC1 / Fold change vs veh, LRRCC1 / RFU, ARID1A / Fold change vs veh, ARID1A / RFU, ZNF146 / Fold change vs veh, ZNF146 / RFU, ZNF330 / Fold change vs veh, ZNF330 / RFU, GPN3 / Fold change vs veh, GPN3 / RFU, C9orf123 / Fold change vs veh, C9orf123 / RFU, N4BP2L2 / Fold change vs veh, N4BP2L2 / RFU, ARFIP1 / Fold change vs veh, ARFIP1 / RFU, FAM179B / Fold change vs veh, FAM179B / RFU, BCL10 / Fold change vs veh, BCL10 / RFU, UHRF1BP1L / Fold change vs veh, UHRF1BP1L / RFU, BET1 / Fold change vs veh, BET1 / RFU, CNOT2 / Fold change vs veh, CNOT2 / RFU, ZNF268 / Fold change vs veh, ZNF268 / Fold change vs veh, ZNF507 / RFU, DGCR2 / Fold change vs veh, DGCR2 / RFU, WDSUB1 / Fold change vs veh, WDSUB1 / Fold change vs veh, HSP90B1 /// MIR3652 / RFU, ADSS / Fold change vs veh, ADSS / RFU, GK / Fold change vs veh, GK / RFU, ZNF148 / Fold change vs veh, ZNF148 / RFU, TAF9 / Fold change vs veh, TAF9 / RFU, SLC1A5 / Fold change vs veh, SLC1A5 / RFU, SLMO2 / Fold change vs veh, SLMO2 / RFU, ABCC4 / Fold change vs veh, ABCC4 / RFU, LOC101060439 /// RAP1B / Fold change vs veh, LOC101060439 /// RAP1B / RFU, RFX7 / Fold change vs veh, RFX7 / RFU, GTPBP10 / Fold change vs veh, GTPBP10 / RFU, CNEP1R1 / Fold change vs veh, CNEP1R1 / RFU, BIVM-ERCC5 /// ERCC5 / Fold change vs veh, BIVM-ERCC5 /// ERCC5 / RFU, ILF3 / Fold change vs veh, ILF3 / RFU 11762660_at / Fold change /veh 11762660_at / RFU VCAN (11757783_s_at) / Fold change /veh VCAN (11757783_s_at) / RFU DDX43 (11728927_at) / Fold change /veh DDX43 (11728927_at) / RFU KRT8 (11758188_x_at) / Fold change /veh KRT8 (11758188_x_at) / RFU NKD1 (11759106_at) / Fold change /veh NKD1 (11759106_at) / RFU SRD5A1 (11742802_a_at) / Fold change /veh SRD5A1 (11742802_a_at) / RFU TPSAB1 /// TPSB2 (11721975_s_at) / Fold change /veh TPSAB1 /// TPSB2 (11721975_s_at) / RFU GSTM3 (11746129_a_at) / Fold change /veh GSTM3 (11746129_a_at) / RFU IL23R (11737362_x_at) / Fold change /veh IL23R (11737362_x_at) / RFU TMEM51 (11727254_a_at) / Fold change /veh TMEM51 (11727254_a_at) / RFU PIWIL2 (11732686_x_at) / Fold change /veh PIWIL2 (11732686_x_at) / RFU ORM1 (11744905_x_at) / Fold change /veh ORM1 (11744905_x_at) / RFU CCDC152 (11743942_at) / Fold change /veh CCDC152 (11743942_at) / RFU ECM1 (11717891_a_at) / Fold change /veh ECM1 (11717891_a_at) / RFU IL23R (11748794_a_at) / Fold change /veh IL23R (11748794_a_at) / RFU TNFAIP8L3 (11732012_x_at) / Fold change /veh TNFAIP8L3 (11732012_x_at) / RFU MBOAT4 (11741988_at) / Fold change /veh MBOAT4 (11741988_at) / RFU 11764193_at / Fold change /veh 11764193_at / RFU TMEM53 (11763286_at) / Fold change /veh TMEM53 (11763286_at) / RFU MAGEB2 (11727129_at) / Fold change /veh MAGEB2 (11727129_at) / RFU TMEM200A (11744735_a_at) / Fold change /veh TMEM200A (11744735_a_at) / RFU CCDC152 (11751479_a_at) / Fold change /veh CCDC152 (11751479_a_at) / RFU FAM211A (11726209_a_at) / Fold change /veh FAM211A (11726209_a_at) / RFU RGS16 (11746705_a_at) / Fold change /veh RGS16 (11746705_a_at) / RFU VCAN (11755009_s_at) / Fold change /veh VCAN (11755009_s_at) / RFU RHOB (11743442_s_at) / Fold change /veh RHOB (11743442_s_at) / RFU RGS16 (11720943_a_at) / Fold change /veh RGS16 (11720943_a_at) / RFU RGS16 (11720944_at) / Fold change /veh RGS16 (11720944_at) / RFU, VPS4B / Fold change vs veh, VPS4B / RFU, CREB1 / Fold change vs veh, CREB1 / RFU, DNAJC13 / Fold change vs veh, DNAJC13 / RFU, GNAQ / Fold change vs veh, GNAQ / RFU, CDK5R1 / Fold change vs veh, CDK5R1 / RFU, ZRANB3 / Fold change vs veh, ZRANB3 / RFU, CUL4A / Fold change vs veh, CUL4A / RFU, CCNY / Fold change vs veh, CCNY / RFU, UFL1 / Fold change vs veh, UFL1 / RFU, COG3 / Fold change vs veh, COG3 / RFU, DIAPH2 / Fold change vs veh, DIAPH2 / RFU, SKA2 / Fold change vs veh, SKA2 / RFU, AFF3 / Fold change vs veh, AFF3 / RFU, LMF1 / Fold change vs veh, LMF1 / RFU, IPO11 / Fold change vs veh, IPO11 / RFU, DFFB / Fold change vs veh, DFFB / RFU, FOXP1 / Fold change vs veh, FOXP1 / RFU, CARD8 / Fold change vs veh, CARD8 / RFU, STRN3 / Fold change vs veh, STRN3 / RFU, ADK / Fold change vs veh, ADK / RFU, RASSF2 / Fold change vs veh, RASSF2 / RFU, WIPF1 / Fold change vs veh, WIPF1 / RFU, LARP1B / Fold change vs veh, LARP1B / RFU, RASA1 / Fold change vs veh, RASA1 / RFU, RB1 / Fold change vs veh, RB1 / RFU, PPFIA1 / Fold change vs veh, PPFIA1 / RFU, MAT2A / Fold change vs veh, MAT2A / RFU, CCT5 / Fold change vs veh, CCT5 / RFU, WDR92 / Fold change vs veh, WDR92 / RFU, CUX1 / Fold change vs veh, CUX1 / RFU, TTC7A / Fold change vs veh, TTC7A / RFU, TMEM135 / Fold change vs veh, TMEM135 / RFU, DEPTOR / Fold change vs veh, DEPTOR / RFU, CPM / Fold change vs veh, CPM / RFU, DNAJB6 / Fold change vs veh, DNAJB6 / RFU, CACNA2D3 / Fold change vs veh, CACNA2D3 / RFU, DTX4 / Fold change vs veh, DTX4 / RFU, TFCP2 / Fold change vs veh, TFCP2 / RFU, GMCL1 /// GMCL1P1 / Fold change vs veh, GMCL1 /// GMCL1P1 / RFU, AEBP2 / Fold change vs veh, AEBP2 / RFU, SNHG1 /// SNORD22 /// SNORD25 /// SNORD26 /// SNORD27 /// SNORD28 /// SNORD29 /// SNORD31 / Fold change vs veh, SNHG1 /// SNORD22 /// SNORD25 /// SNORD26 /// SNORD27 /// SNORD28 /// SNORD29 /// SNORD31 / Fold change (Aza/veh), C12orf56 (ProbeSet 11735607_a_at) / Fold change (ACY-1035/veh), C12orf56 (ProbeSet 11735607_a_at) / Fold change (Aza/veh), FGFR1OP (ProbeSet 11751329_s_at) / Fold change (ACY-1035/veh), FGFR1OP (ProbeSet 11751329_s_at) / Fold change (Aza/veh), VPS36 (ProbeSet 11739960_a_at) / Fold change (ACY-1035/veh), VPS36 (ProbeSet 11739960_a_at) / RFU SYPL1 (11715823_x_at) / Fold change /veh SYPL1 (11715823_x_at) / RFU IGFBP7 (11715501_s_at) / Fold change /veh IGFBP7 (11715501_s_at) / RFU REEP3 (11722064_at) / Fold change /veh REEP3 (11722064_at) / RFU IGLL1 (11728026_x_at) / Fold change /veh IGLL1 (11728026_x_at): dose or concentration left out as unconfirmed
Settings: ProbeSet 11740528_a_at; LIST D

Nc1ccc(-c2cccs2)cc1NC(=O)c1ccc2c(c1)cc(C1CC1)n2CCN1CCOCC1 [ACY-1035]
RFU, AFF3: 703.28 RFU
